ChEMBL document CHEMBL1201862, “PubChem BioAssay data set” (2004)
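A five-concentration, 48-hour dose response in 96-well plates underlies each endpoint, interpolated linearly between surrounding concentrations. Here, GI50 denotes the concentration required for 50% inhibition of growth.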 Calls of active or inactive are those of the source. Cut-off read from the data, not from the text of the source: active = GI50 up to about 1.1 µM and inactive = higher.

Experiments:
Assay in all cases: NCI anticancer screen, dose series, 48 h
Malme-3M = tested on: Malme-3M
SR = tested on: SR
HCT-116 = tested on: HCT-116
OVCAR-5 = tested on: OVCAR-5
OVCAR-3 = tested on: OVCAR-3
SK-MEL-28 = tested on: SK-MEL-28
EKVX = tested on: EKVX
UACC-62 = tested on: UACC-62
HOP-62 = tested on: HOP-62
SNB-19 = tested on: SNB-19
SF-268 = tested on: SF-268
CAKI-1 = tested on: CAKI-1
CCRF-CEM = tested on: CCRF-CEM
KM12 = tested on: KM12
LOX IMVI = tested on: LOX IMVI
RXF 393 = tested on: RXF 393
KM-20L2 = tested on: KM-20L2
BT-549 = tested on: BT-549
MDA-N = tested on: MDA-N

SMILES	GI50 (Malme-3M)	GI50 (SR)	GI50 (HCT-116)	GI50 (OVCAR-5)	GI50 (OVCAR-3)	GI50 (SK-MEL-28)	GI50 (EKVX)	GI50 (UACC-62)	GI50 (HOP-62)	GI50 (SNB-19)	GI50 (SF-268)	GI50 (CAKI-1)	GI50 (CCRF-CEM)	GI50 (KM12)	GI50 (LOX IMVI)	GI50 (RXF 393)	GI50 (KM-20L2)	GI50 (BT-549)	GI50 (MDA-N)
COc1cc(C2c3cc4c(cc3[C@@H](Nc3ccc5c(c3)OCCO5)C3COC(=O)[C@H]23)OCO4)cc(OC)c1O (some centres not stated)	1.6 µM (inactive)	< 0.0364 µM (active)	0.194 µM (active)	2.22 µM (inactive)	0.959 µM (active)	2.05 µM (inactive)	2.87 µM (inactive)	0.257 µM (active)	0.22 µM (active)	1.04 µM (active)	0.771 µM (active)	0.113 µM (active)	0.138 µM (active)	1.85 µM (inactive)	0.587 µM (active)	0.453 µM (active)	0.745 µM (active)	3.9 µM (inactive)	
CCCS(=O)(=O)/C(=C(\c1ccc(Br)cc1)S(=O)(=O)CCC)c1ccc(Br)cc1	> 10 µM (inactive)	> 10 µM (inactive)	> 10 µM (inactive)	> 10 µM (inactive)	> 10 µM (inactive)	> 10 µM (inactive)	> 10 µM (inactive)	> 10 µM (inactive)	> 10 µM (inactive)	> 10 µM (inactive)	> 10 µM (inactive)	> 10 µM (inactive)	> 10 µM (inactive)	> 10 µM (inactive)	> 10 µM (inactive)	> 10 µM (inactive)	> 10 µM (inactive)		
Cc1nn(C(=O)CC(=O)Nc2ccccc2Cl)c(C)c1/N=N/c1ccccc1Cl	> 100 µM (inactive)	> 100 µM (inactive)	> 100 µM (inactive)	> 100 µM (inactive)	> 100 µM (inactive)	> 100 µM (inactive)	> 100 µM (inactive)	> 100 µM (inactive)	> 100 µM (inactive)	> 100 µM (inactive)	85.7 µM (inactive)	> 100 µM (inactive)	> 100 µM (inactive)	> 100 µM (inactive)	> 100 µM (inactive)	> 100 µM (inactive)	> 100 µM (inactive)		
COc1cc2c3c(c1OC)C1(C=CC(=O)C=C1)C[C@H]3N(C)CC2 [PRONUCIFERINE]	> 100 µM (inactive)	> 100 µM (inactive)	> 100 µM (inactive)	> 100 µM (inactive)	> 100 µM (inactive)	> 100 µM (inactive)	> 100 µM (inactive)	> 100 µM (inactive)		> 100 µM (inactive)	> 100 µM (inactive)			> 100 µM (inactive)	> 100 µM (inactive)	26 µM (inactive)	> 100 µM (inactive)		
CCCC(=O)c1ccc(=O)n(C)c1	> 100 µM (inactive)	> 100 µM (inactive)	> 100 µM (inactive)	> 100 µM (inactive)	> 100 µM (inactive)	> 100 µM (inactive)	> 100 µM (inactive)	> 100 µM (inactive)	> 100 µM (inactive)	> 100 µM (inactive)	> 100 µM (inactive)	> 100 µM (inactive)	> 100 µM (inactive)	> 100 µM (inactive)	> 100 µM (inactive)	> 100 µM (inactive)	> 100 µM (inactive)		
c1ccc(C2CC(c3ccc4ccccc4c3)=Nc3ccccc3S2)cc1 (configuration not stated)	19.4 µM (inactive)	23.7 µM (inactive)	14.8 µM (inactive)	21.8 µM (inactive)	17.3 µM (inactive)	18.3 µM (inactive)	23.2 µM (inactive)	16.9 µM (inactive)	17.1 µM (inactive)	19.1 µM (inactive)	17 µM (inactive)	> 10 µM (inactive)	26.1 µM (inactive)	17.7 µM (inactive)	15.7 µM (inactive)	19.1 µM (inactive)	18.3 µM (inactive)		
CC(=O)O/C(C)=C\C(=O)O/N=C(\N)c1ccc(C)cc1	25.4 µM (inactive)	20.5 µM (inactive)	19.9 µM (inactive)	> 100 µM (inactive)	34.7 µM (inactive)	19.6 µM (inactive)	92.3 µM (inactive)	22.7 µM (inactive)	33.1 µM (inactive)	43.7 µM (inactive)	29.8 µM (inactive)	> 100 µM (inactive)	17.3 µM (inactive)	41.8 µM (inactive)	34.4 µM (inactive)	27.4 µM (inactive)	33.7 µM (inactive)		
COc1cc(Br)c(/C=N\c2cccc3cc(OC)c(OC)cc23)cc1OC	54.1 µM (inactive)	15.5 µM (inactive)	34.3 µM (inactive)	> 100 µM (inactive)	23.5 µM (inactive)	88.3 µM (inactive)	50.2 µM (inactive)	26 µM (inactive)	> 100 µM (inactive)	> 100 µM (inactive)	45.4 µM (inactive)	41.5 µM (inactive)	17.8 µM (inactive)	28.8 µM (inactive)	35.3 µM (inactive)	20.2 µM (inactive)	55.6 µM (inactive)		
CC(Cl)(/C=C/Cl)C(Cl)/C=C/C(Cl)(CCl)CBr (configuration not stated)	3.37 µM (inactive)	0.191 µM (active)	1.54 µM (inactive)	16 µM (inactive)	12.5 µM (inactive)	2.24 µM (inactive)	31.8 µM (inactive)	1.68 µM (inactive)	24.3 µM (inactive)	14.1 µM (inactive)	2.09 µM (inactive)	12.2 µM (inactive)	0.305 µM (active)	6.64 µM (inactive)	1.66 µM (inactive)	1.45 µM (inactive)	5.22 µM (inactive)		
CC(=O)OCC1OC(NC(=S)N/N=C2\CC(c3ccccc3)Oc3ccccc32)C(OC(C)=O)C(OC(C)=O)C1OC(C)=O (configuration not stated)	> 100 µM (inactive)	> 100 µM (inactive)	> 100 µM (inactive)	> 100 µM (inactive)	> 100 µM (inactive)		> 100 µM (inactive)	> 100 µM (inactive)	> 100 µM (inactive)	> 100 µM (inactive)	> 100 µM (inactive)	> 100 µM (inactive)	> 100 µM (inactive)	> 100 µM (inactive)	> 100 µM (inactive)	> 100 µM (inactive)	> 100 µM (inactive)		
CCOC(=O)C1=C(C)N(Cc2ccccc2)C(C)=C(C(=O)OCC)C1c1ccccc1O	26 µM (inactive)	15.9 µM (inactive)	29.4 µM (inactive)	> 100 µM (inactive)	25.2 µM (inactive)	19.2 µM (inactive)	24.7 µM (inactive)	18.1 µM (inactive)	31.5 µM (inactive)	43.2 µM (inactive)	32.4 µM (inactive)	27.2 µM (inactive)	27 µM (inactive)	23.7 µM (inactive)	17.9 µM (inactive)	18.7 µM (inactive)	41 µM (inactive)		
O=C1CC(C[C@H](O)C2CCCCC2O)CC(=O)N1Cc1ccccc1 (some centres not stated)	> 100 µM (inactive)	> 100 µM (inactive)	> 100 µM (inactive)	> 100 µM (inactive)	> 100 µM (inactive)	> 100 µM (inactive)	> 100 µM (inactive)	> 100 µM (inactive)	> 100 µM (inactive)	> 100 µM (inactive)	> 100 µM (inactive)	> 100 µM (inactive)	> 100 µM (inactive)	> 100 µM (inactive)	> 100 µM (inactive)	> 100 µM (inactive)	> 100 µM (inactive)		
Nc1ccccc1C(=O)CCC1C(=O)NC(=S)NC1=O	> 100 µM (inactive)	> 100 µM (inactive)	> 100 µM (inactive)	> 100 µM (inactive)	> 100 µM (inactive)	> 100 µM (inactive)	> 100 µM (inactive)	> 100 µM (inactive)	> 100 µM (inactive)	> 100 µM (inactive)	> 100 µM (inactive)	> 100 µM (inactive)	> 100 µM (inactive)	> 100 µM (inactive)	> 100 µM (inactive)	> 100 µM (inactive)	> 100 µM (inactive)		> 100 µM (inactive)
C[N+]1(C)C/C(=C\c2ccccc2)C(=O)/C(=C/c2ccccc2)C1	> 100 µM (inactive)	63 µM (inactive)	> 100 µM (inactive)	> 100 µM (inactive)	> 100 µM (inactive)	> 100 µM (inactive)	< 0.01 µM (active)		> 100 µM (inactive)		> 100 µM (inactive)		49 µM (inactive)	> 100 µM (inactive)		> 100 µM (inactive)	> 100 µM (inactive)		
O=C(CC(=O)C(=O)CC(=O)OCc1ccccc1)OCc1ccccc1	> 100 µM (inactive)	70.8 µM (inactive)	44.6 µM (inactive)	> 100 µM (inactive)		67.6 µM (inactive)	> 100 µM (inactive)	84.9 µM (inactive)	56.2 µM (inactive)	43.4 µM (inactive)	32.3 µM (inactive)	> 100 µM (inactive)	49.2 µM (inactive)			75 µM (inactive)	> 100 µM (inactive)		
O=C(c1ccc(Cl)cc1)N(C(=S)N1CCN(c2ccccc2)CC1)c1ccccc1	> 100 µM (inactive)	> 100 µM (inactive)	> 100 µM (inactive)	> 100 µM (inactive)	> 100 µM (inactive)	> 100 µM (inactive)		> 100 µM (inactive)	> 100 µM (inactive)	> 100 µM (inactive)	> 100 µM (inactive)	> 100 µM (inactive)	> 100 µM (inactive)	> 100 µM (inactive)	> 100 µM (inactive)	> 100 µM (inactive)	> 100 µM (inactive)		
